Reference: ChEMBL document CHEMBL5046285, “Probing Fluorinated Motifs onto Dual AChE-MAO B Inhibitors: Rational Design, Synthesis, Biological Evaluation, and Early-ADME Studies” (J Med Chem, 2022)
In brackets after ≈: the same amount, converted by molar mass.

How the values were obtained:
[1] = target: Cholinesterase (Equus caballus) (UniProt P81908); assay: Inhibition of horse serum BChE at 10 uM by Ellman's spectrophotometric assay; type: cell-free
[2] = target: T1, Amine oxidase [flavin-containing] A (Homo sapiens, UniProt P21397)
T1 sequence (P21397 whole entry): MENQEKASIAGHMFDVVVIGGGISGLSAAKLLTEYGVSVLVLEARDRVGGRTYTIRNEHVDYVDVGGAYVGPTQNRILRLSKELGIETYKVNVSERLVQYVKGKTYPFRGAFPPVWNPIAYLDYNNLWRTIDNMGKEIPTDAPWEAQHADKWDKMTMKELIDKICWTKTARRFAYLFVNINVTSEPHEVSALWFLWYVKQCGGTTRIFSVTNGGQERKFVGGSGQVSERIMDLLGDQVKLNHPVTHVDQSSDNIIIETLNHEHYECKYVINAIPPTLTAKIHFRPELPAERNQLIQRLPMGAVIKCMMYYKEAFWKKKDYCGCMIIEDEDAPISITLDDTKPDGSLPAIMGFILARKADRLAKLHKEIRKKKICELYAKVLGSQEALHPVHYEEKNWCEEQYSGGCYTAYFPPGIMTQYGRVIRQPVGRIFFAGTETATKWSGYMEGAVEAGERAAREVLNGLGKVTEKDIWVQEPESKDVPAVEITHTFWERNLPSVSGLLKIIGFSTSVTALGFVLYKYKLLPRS
Description: Inhibition of human recombinant MAO-A expressed in supersomes assessed as inhibition of 4-hydroxyquinoline formation using kynuramine as substrate by spectrofluorimetric analysis

[3] = target: T2, Amine oxidase [flavin-containing] B (Homo sapiens, UniProt P27338)
T2 sequence (P27338 whole entry): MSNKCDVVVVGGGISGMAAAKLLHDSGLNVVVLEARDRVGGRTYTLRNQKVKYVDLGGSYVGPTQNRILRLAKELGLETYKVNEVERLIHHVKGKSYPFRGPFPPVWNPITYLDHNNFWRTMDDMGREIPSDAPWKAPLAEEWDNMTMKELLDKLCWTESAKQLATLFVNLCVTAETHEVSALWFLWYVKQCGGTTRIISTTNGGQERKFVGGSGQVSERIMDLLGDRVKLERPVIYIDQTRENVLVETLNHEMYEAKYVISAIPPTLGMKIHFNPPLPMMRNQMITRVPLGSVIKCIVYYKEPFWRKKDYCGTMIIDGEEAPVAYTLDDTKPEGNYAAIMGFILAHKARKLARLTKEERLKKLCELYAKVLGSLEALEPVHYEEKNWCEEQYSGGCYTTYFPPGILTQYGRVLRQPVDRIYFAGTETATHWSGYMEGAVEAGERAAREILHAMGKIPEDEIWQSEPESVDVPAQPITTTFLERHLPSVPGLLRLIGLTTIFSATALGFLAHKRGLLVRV
Description: Inhibition of human recombinant MAO-B expressed in supersomes assessed as inhibition of 4-hydroxyquinoline formation using kynuramine as substrate by spectrofluorimetric analysis

[4] = Chromatographic hydrophobicity index of the compound in ammonium acetate buffer at pH 7.4 by RP-HPLC analysis; type: physicochemical
[5] = target: Acetylcholinesterase (Homo sapiens, UniProt P22303)
Description: Inhibition of human recombinant AChE by Ellman's spectrophotometric assay

[6] = Intrinsic clearance in mouse liver microsomes at 0.5 uM incubated upto 30 mins in presence of NADPH measured per mg protein by LC/MS/MS analysis; type: ADME, Microsome; details: read-out: CLH
[7] = Kinetic aqueous solubility of the compound in PBS incubated for 2 hrs under mild shaking at pH 7.4 by UV- vis spectrophotometric analysis; type: physicochemical; details: read-out: Kinetic_solubility
[8] = Microsomal stability in mouse liver microsomes assessed as half life at 0.5 uM incubated upto 30 mins in presence of NADPH by LC/MS/MS analysis; type: ADME, Microsome
[9] = 1-Octanol/PBS buffer distribution coefficient, log D of the compound at 1 uM measured after 24 hrs at pH 7.4 by shake flask based HPLC-ES-MS/MS analysis; type: physicochemical
[10] = system: HepG2; assay: Cytotoxicity against human HepG2 cells assessed as reduction in cell viability at 1 to 100 uM incubated for 4 hrs by CellTiter-Glo luminescence assay; type: toxicity, cell-based; details: hepg2, 4 h, dose 1-100 µM
[11] = target: Cytochrome P450 3A4 (Homo sapiens, UniProt P08684); assay: Inhibition of human recombinant CYP3A4 expressed in baculosomes by fluorescent homogenous assay; type: ADME
[12] = Apparent permeability across basolateral to apical side in human Caco-2 cells at 10 uM incubated for 60 mins by HPLC-MS/MS method; type: ADME, cell-based
[13] = Efflux ratio of apparent permeability across basolateral to apical side over apical to basolateral side in human Caco-2 cells; type: ADME, cell-based
[14] = Apparent permeability across apical to basolateral side in human Caco-2 cells at 10 uM incubated for 60 mins by HPLC-MS/MS method; type: ADME, cell-based
[15] = Intrinsic clearance in human liver microsomes at 0.5 uM incubated upto 60 mins in presence of NADPH measured per mg protein by LC/MS/MS analysis; type: ADME, Microsome; details: read-out: CLH
[16] = target: Albumin (Homo sapiens, UniProt P02768); assay: Binding affinity to human serum albumin assessed as dissociation […] constant by surface plasmon resonance assay; type: ADME, cell-free
[17] = target: T3, MAO-A (Homo sapiens, UniProt P21397); assay: in vitro; details: recombinant MAO-A expressed in supersomes, probe kynuramine
T3 sequence (P21397 whole entry): T1 sequence (P21397 whole entry)

[18] = Microsomal stability in human liver microsomes assessed as half life at 0.5 uM incubated upto 60 mins in presence of NADPH by LC/MS/MS analysis; type: ADME, Microsome
[19] = system: SH-SY5Y; assay: Cytotoxicity against human SH-SY5Y cells assessed as reduction in cell viability at 1 to 100 uM incubated for 4 hrs by CellTiter-Glo luminescence assay; type: toxicity, cell-based; details: dose 1-100 µM
[20] = Effective permeability of the compound in PBS buffer at pH 7.4 by PAMPA-BBB assay; type: ADME; details: read-out: Peff
[21] = target: Cholinesterase (Equus caballus, UniProt P81908)
Description: Inhibition of horse serum BChE by Ellman's spectrophotometric assay

[22] = species on record: Homo sapiens; assay: Selectivity for human recombinant MAO-B expressed in supersomes over human recombinant MAO-A expressed in supersomes

Chain of Acetylcholinesterase (P22303 whole entry): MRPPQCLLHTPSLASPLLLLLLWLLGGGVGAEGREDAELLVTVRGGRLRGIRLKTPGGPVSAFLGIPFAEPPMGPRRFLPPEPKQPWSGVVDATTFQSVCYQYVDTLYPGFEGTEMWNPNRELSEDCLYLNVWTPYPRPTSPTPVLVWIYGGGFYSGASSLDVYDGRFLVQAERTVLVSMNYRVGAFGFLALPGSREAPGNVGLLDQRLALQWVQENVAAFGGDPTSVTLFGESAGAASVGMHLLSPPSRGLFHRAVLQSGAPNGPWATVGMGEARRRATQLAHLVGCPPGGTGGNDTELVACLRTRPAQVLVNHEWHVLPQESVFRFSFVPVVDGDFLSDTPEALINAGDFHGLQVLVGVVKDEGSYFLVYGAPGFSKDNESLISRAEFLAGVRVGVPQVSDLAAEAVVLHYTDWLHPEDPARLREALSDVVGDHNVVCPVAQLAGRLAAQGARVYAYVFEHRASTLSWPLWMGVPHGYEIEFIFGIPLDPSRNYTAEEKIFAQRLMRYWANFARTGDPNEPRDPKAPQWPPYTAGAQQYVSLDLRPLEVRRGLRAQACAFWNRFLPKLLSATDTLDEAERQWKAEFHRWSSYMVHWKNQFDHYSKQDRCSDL
Chain of Cholinesterase (P81908 whole entry): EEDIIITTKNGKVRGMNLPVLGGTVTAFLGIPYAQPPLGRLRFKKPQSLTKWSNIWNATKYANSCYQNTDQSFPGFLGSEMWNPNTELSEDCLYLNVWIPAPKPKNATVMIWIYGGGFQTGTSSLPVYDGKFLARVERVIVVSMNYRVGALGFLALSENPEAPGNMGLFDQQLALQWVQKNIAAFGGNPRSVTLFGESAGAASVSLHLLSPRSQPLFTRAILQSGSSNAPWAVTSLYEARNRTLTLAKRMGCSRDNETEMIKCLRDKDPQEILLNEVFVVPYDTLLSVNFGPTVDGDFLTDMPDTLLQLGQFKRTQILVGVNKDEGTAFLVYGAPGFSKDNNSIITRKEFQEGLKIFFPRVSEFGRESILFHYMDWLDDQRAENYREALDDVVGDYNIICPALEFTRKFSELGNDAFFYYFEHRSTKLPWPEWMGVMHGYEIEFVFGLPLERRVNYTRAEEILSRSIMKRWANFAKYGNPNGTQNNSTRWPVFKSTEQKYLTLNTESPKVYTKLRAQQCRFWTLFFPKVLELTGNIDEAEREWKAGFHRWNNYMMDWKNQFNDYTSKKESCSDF
Chain of Cytochrome P450 3A4 (P08684 whole entry): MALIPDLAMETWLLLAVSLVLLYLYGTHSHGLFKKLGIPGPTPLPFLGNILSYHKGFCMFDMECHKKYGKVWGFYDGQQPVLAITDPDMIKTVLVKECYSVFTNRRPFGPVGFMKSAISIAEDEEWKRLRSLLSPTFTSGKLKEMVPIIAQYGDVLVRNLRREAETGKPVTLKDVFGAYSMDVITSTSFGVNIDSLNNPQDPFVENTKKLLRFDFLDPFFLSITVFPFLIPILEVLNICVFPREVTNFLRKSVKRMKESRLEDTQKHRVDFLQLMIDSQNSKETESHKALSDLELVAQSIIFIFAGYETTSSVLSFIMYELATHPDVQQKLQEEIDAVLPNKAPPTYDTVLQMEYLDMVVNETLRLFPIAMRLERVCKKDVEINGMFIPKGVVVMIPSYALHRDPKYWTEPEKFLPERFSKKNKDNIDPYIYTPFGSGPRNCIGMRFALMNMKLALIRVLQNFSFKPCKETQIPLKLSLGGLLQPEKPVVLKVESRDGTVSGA
Chain of Cholinesterase (Equus caballus) (P81908 whole entry): as the sequence (P81908 whole entry) above
Chain of Albumin (P02768 whole entry): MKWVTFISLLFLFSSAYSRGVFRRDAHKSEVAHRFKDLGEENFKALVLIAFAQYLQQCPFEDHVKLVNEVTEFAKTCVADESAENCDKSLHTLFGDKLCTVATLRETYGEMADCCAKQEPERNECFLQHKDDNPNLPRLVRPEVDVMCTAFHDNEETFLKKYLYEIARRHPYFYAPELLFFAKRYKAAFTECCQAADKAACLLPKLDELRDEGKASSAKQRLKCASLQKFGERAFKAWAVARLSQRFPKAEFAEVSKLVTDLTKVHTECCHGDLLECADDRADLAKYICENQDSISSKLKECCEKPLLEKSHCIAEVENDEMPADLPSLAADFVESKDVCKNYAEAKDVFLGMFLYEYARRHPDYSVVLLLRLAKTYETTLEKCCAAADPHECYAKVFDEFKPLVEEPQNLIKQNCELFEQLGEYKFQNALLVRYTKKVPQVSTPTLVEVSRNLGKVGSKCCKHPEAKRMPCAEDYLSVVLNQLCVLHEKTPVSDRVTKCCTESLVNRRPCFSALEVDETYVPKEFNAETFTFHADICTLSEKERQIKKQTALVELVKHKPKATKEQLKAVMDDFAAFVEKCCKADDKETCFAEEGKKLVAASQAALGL

Cc1c(C)c2ccc(OCC3CCN(Cc4cccc(C(F)(F)F)c4)CC3)cc2oc1=O
inhibition [1]: 35%
IC50 [2]: 1.4 µM
IC50 [3]: 0.13 µM
CHI [4]: > 100
IC50 [5]: 0.47 µM
microsomal CLint at 0.5 µM [6]: 146 µL/min/mg
solubility kinetic at 2 h [7]: 0.9 µM (≈ 0.401 µg/mL)
half-life at 0.5 µM [8]: 9.5 min
logD at 24 h, 1 µM [9]: 5.05

Cc1c(C)c2ccc(OCC3CCCN(Cc4ccccc4)C3)cc2oc1=O (racemic)
CHI [4]: > 100
microsomal CLint at 0.5 µM [6]: 265 µL/min/mg
solubility kinetic at 2 h [7]: 33 µM (≈ 12.5 µg/mL)
half-life at 0.5 µM [8]: 5.3 min
logD at 24 h, 1 µM [9]: 3.65

Cc1c(C)c2ccc(OCC3CCN(CCCO)CC3)cc2oc1=O
Activity [10]: Non-Toxic
IC50 [11]: > 10 µM
Papp B→A at 1 h, 10 µM [12]: 22 ×10⁻⁶ cm/s
efflux ratio [13]: 1.2
CHI [4]: 47.3
Papp A→B at 1 h, 10 µM [14]: 19 ×10⁻⁶ cm/s
microsomal CLint at 0.5 µM [15]: < 11.5 µL/min/mg
microsomal CLint at 0.5 µM [6]: 29.5 µL/min/mg
Kd [16]: 31.7 µM
inhibition at 10 µM [17]: 50%
half-life at 0.5 µM [18]: > 120 min
Activity [19]: Non-Toxic
solubility kinetic at 2 h [7]: > 500 µM
half-life at 0.5 µM [8]: 47.2 min
Papp [20]: 6 ×10⁻⁶ cm/s
logD at 24 h, 1 µM [9]: 0.86

Cc1c(C)c2ccc(OCC3CCCN(CCCC(F)F)C3)cc2oc1=O (racemic)
inhibition [1]: 22%
IC50 [2]: 11 µM
IC50 [11]: > 10 µM
IC50 [3]: 0.26 µM
CHI [4]: 83.4
IC50 [5]: 0.48 µM
microsomal CLint at 0.5 µM [6]: 78.1 µL/min/mg
solubility kinetic at 2 h [7]: 349 µM (≈ 132 µg/mL)
half-life at 0.5 µM [8]: 17.8 min
Papp [20]: 13.3 ×10⁻⁶ cm/s
logD at 24 h, 1 µM [9]: 2.67

CCN(CCCOc1ccc2c(C)c(C)c(=O)oc2c1)Cc1cccc(F)c1
IC50 [2]: 7.8 µM
IC50 [3]: 0.073 µM
CHI [4]: > 100
IC50 [5]: 1.2 µM
microsomal CLint at 0.5 µM [6]: 260 µL/min/mg
solubility kinetic at 2 h [7]: 18 µM (≈ 6.9 µg/mL)
half-life at 0.5 µM [8]: 5.3 min
IC50 [21]: 4.3 µM

Cc1c(C)c2ccc(OCC3CCCN(Cc4cccc(F)c4)C3)cc2oc1=O (racemic)
IC50 [2]: 2 µM
IC50 [3]: 0.012 µM
CHI [4]: > 100
IC50 [5]: 1.2 µM
microsomal CLint at 0.5 µM [6]: 210 µL/min/mg
solubility kinetic at 2 h [7]: 20 µM (≈ 7.91 µg/mL)
half-life at 0.5 µM [8]: 6.6 min
Papp [20]: 10 ×10⁻⁶ cm/s
IC50 [21]: 2 µM
logD at 24 h, 1 µM [9]: 4.38

CN(Cc1ccccc1)Cc1ccc(COc2ccc3c(CO)cc(=O)oc3c2)cc1
CHI [4]: 99.3
microsomal CLint at 0.5 µM [6]: 43.9 µL/min/mg
half-life at 0.5 µM [8]: 31.7 min
logD at 24 h, 1 µM [9]: 3.81

CN(Cc1ccccc1)Cc1ccc(COc2ccc3c(C(F)F)cc(=O)oc3c2)cc1
IC50 [3]: 0.13 µM
CHI [4]: > 100
IC50 [5]: 0.56 µM
microsomal CLint at 0.5 µM [6]: 142 µL/min/mg
Selectivity Index [22]: > 73
inhibition at 10 µM [17]: 17%
solubility kinetic at 2 h [7]: 0.4 µM (≈ 0.174 µg/mL)
half-life at 0.5 µM [8]: 9.8 min
IC50 [21]: 0.43 µM
logD at 24 h, 1 µM [9]: 4.8
